Measured values reported in article PMC7541396 (Nature biotechnology, 2020).

B1: PPE26: Mtb PPE protein, cell-free expressed (protein, UniProt Q79FK6 1-393, looked up)
PPE family protein PPE26: MDFGALPPEVNSVRMYAGPGSAPMVAAASAWNGLAAELSSAATGYETVITQLSSEGWLGPASAAMAEAVAPYVAWMSAAAAQAEQAATQARAAAAAFEAAFAATVPPPLIAANRASLMQLISTNVFGQNTSAIAAAEAQYGEMWAQDSAAMYAYAGSSASASAVTPFSTPPQIANPTAQGTQAAAVATAAGTAQSTLTEMITGLPNALQSLTSPLLQSSNGPLSWLWQILFGTPNFPTSISALLTDLQPYASFFYNTEGLPYFSIGMGNNFIQSAKTLGLIGSAAPAAVAAAGDAAKGLPGLGGMLGGGPVAAGLGNAASVGKLSVPPVWSGPLPGSVTPGAAPLPVSTVSAAPEAAPGSLLGGLPLAGAGGAGAGPRYGFRPTVMARPPFAG

Assays:
TCR004 = type: cell-based, human; conditions: Supplementary Fig. 4b, n=3
TCR121 = experiment: Mtb proteome screen and PPE protein stimulation with aAPC, TCR121; type: cell-based, human

Row | Molecule | response of TCR004 to cell-free expressed protein (TCR004) | stimulation of TCR121 by whole PPE protein (TCR121)
1 | CFP10: Mtb protein, cell-free expressed; TCR004 target | only responded to its target antigen CFP10 | 
2 | B1 |  | strong to modest stimulation
